From PMC6423055, “Cathelicidins PMAP-36, LL-37 and CATH-2 are similar peptides with different modes of action” (Scientific Reports, 2019)
Like-named read-outs stand apart in the source and are kept apart here. Positions of bridges follow the written chain, without caps; N, C: chain ends. Chains are numbered I, II in the order given. No end group written: not given here.

Key:
[1] = system: Escherichia coli O78; details: for Antibacterial activity against E. coli O78 compared with parent or dimeric counterpart: N = 3–7; for Minimal Bactericidal Concentration (MBC): O78, 3 h
[2] = system: LPS-induced NO production by RAW264.7 cells; assay type: cell-based, murine; details: 100 ng/ml LPS O111:B4, 24 h, Griess assay, compared with full-length PMAP-36
[3] = system: LPS-induced TNFα secretion by RAW264.7 cells; assay: LPS stimulation, TNFα release (ELISA); assay type: cell-based, murine; details: for LPS neutralization, TNFα secretion: compared with full-length PMAP-36
[4] = system: Escherichia coli O78; assay: Transmission electron microscopy of peptide-treated bacteria; assay type: cell-based; details: TEM, 5*10^8 CFU/ml, 60 min 37 °C
Description: (§1) For transmission electron microscopy (TEM), E. coli was used in a higher concentration, (5*10^8 CFU/ml). […] E. coli was incubated with the peptides at MBC concentration or sub-MBC concentration (4x below MBC concentration). After 60 min at 37 °C, fixative (4% glutaraldehyde, 5 mM CaCl2, 10 mM MgCl2 (all from Merck, Darmstadt, Germany) in 0.1 M sodium cacodylate buffer (Sigma) pH 7.4) was added 1:1 to the bacterial-peptide mixture and left for fixation overnight at 4 °C. Samples were washed three times in 0.1 M sodium cacodylate buffer and resuspended in 4% low melting point agarose (Sigma). Samples were post-fixed with 1% osmium tetroxide (Electron Microscopy Sciences (EMS), Hatfield, PA, USA), 1.5% K3Fe(CN)6 (Merck) and 65 mM sodium cacodylate buffer for 2 hours at 4 °C to improve the contrast. After extensive washing with distilled water (5 × 10 min), samples were incubated for 60 min with 0.5% uranyl acetate (EMS) at 4 °C to improve cytoplasmic contrast. After washing with distilled water (3 × 10 min), samples were dehydrated with increasing concentration ethanol and embedded in Epon. […] Morphological effects were quantified for around 100 cells per condition.

[5] = system: Escherichia coli O78; assay type: cell-based
Description: Escherichia coli O78 (E. coli) (Clinical isolate, Zoetis Animal Health, Kalamazoo, MI, USA) was grown in Mueller Hinton Broth (MHB) (Becton Dickinson, USA) to mid-logarithmic phase under constant shaking (200 RPM) at 37 °C. Antimicrobial activity of the peptides was tested using the colony count assay as described before. […] Next, 10-fold dilutions were made, of which 100 μl of the dilutions was spread to tryptic soy agar (TSA) (Oxoid, Basingstoke, UK) plates. Plates were incubated overnight at 37 °C and colonies were counted to determine the number of surviving bacteria. Minimal Bactericidal Concentration (MBC) was defined as ≤100 CFU/ml, the detection limit of the assay.
as §1

[6] = Isothermal titration calorimetry, peptide binding to LPS; set-up: species or system Escherichia coli; details: ITC, 37 °C
Description: Isothermal titration calorimetry (ITC) was performed with the Low Volume NanoITC (TA Instruments-Waters LLC, New Castle, DE, USA) to determine interaction between LPS and the different peptides. 100 μM UltraPure LPS E. coli O111:B4 was diluted in MilliQ, after which 4x dilution in dPBS (Gibco) was made. Peptides were diluted to 800 μM in MilliQ, followed by 4-fold dilution in dPBS. The chamber was filled with 164 μl LPS, the peptide was titrated into the chamber with 1.96 μl every 300 seconds. Experiments were performed at 37 °C and analyzed using the Nano Analyze software (TA instruments-Waters LLC). All experiments were performed 2 times and corrected for buffer in buffer titration, after which the both experiments were averaged. Two independent models were used, except for LL-37 with one independent model fit, to determine the peptide-LPS interaction.

[7] = system: RAW264.7 cells; assay: Cell viability, WST-1 assay; details: WST-1, 24 h, peptide up to 40 μM, no peptide = 100% viability
[8] = system: porcine PBMCs; assay: Cell viability, WST-1 assay; details: WST-1, 24 h, effect at 20–40 μM, N = 6
[9] = system: porcine red blood cells; assay: Hemolysis (heme release); details: peptide 0.63–40 μM, 60 min 37 °C, A405, 0.2% Triton X-100 = 100% lysis, N = 5–7

Molecule | Antibacterial activity against E. coli O78 compared with parent or dimeric counterpart ([1]; 10^6 CFU/ml, 3 h 37 °C) | LPS neutralization, NO production [2] | LPS neutralization, TNFα secretion ([3]; 100 ng/ml LPS O111:B4, 24 h) | Minimal Bactericidal Concentration (MBC) [1] [µM] | further results
Ac-KIGKVLKWIPPIVGSIPLGS [mP16] | lost its antibacterial activity completely |  |  |  | 
I: Ac-RKKTRKRLKKIGKVLKWIPPIVGSIPLGCG / II: Ac-RKKTRKRLKKIGKVLKWIPPIVGSIPLGCG (disulfide I:29-II:29) [Peptide P7] | slightly more efficient than the full-length peptide | as strongly inhibited | as strongly inhibited |  | 
I: Ac-GRFRRLRKKTRKRLKKIGKVLKWIPPIVGSIPLGCG / II: Ac-GRFRRLRKKTRKRLKKIGKVLKWIPPIVGSIPLGCG (disulfide I:35-II:35) [PMAP-36] |  |  |  | 5 to 10 | Morphological changes of E. coli O78 at sub-MBC ([4]; 4x below MBC (PMAP-36 5 μM, CATH-2 10 μM, LL-37 40 μM)): release of small vesicles; Morphological changes of E. coli O78 at MBC ([4]; MBC (PMAP-36 20 μM, CATH-2 40 μM, LL-37 160 μM)): DNA and ribosomes were clustered and located close to the inner membrane; Concentration completely blocking TNFα secretion ([3]; 100 ng/ml LPS O111:B4, 24 h, N = 3): 10 µM; IC50 ([3]; 100 ng/ml LPS O111:B4, RAW264.7, 24 h, read-out: Concentration reducing LPS-induced macrophage activation for 50%): 5 µM; Concentration giving significant inhibition of E. coli O78 ([1]; 10^6 CFU/ml, 3 h 37 °C, vs no peptide control, N = 3–4): 2.5 µM; MBC at higher density of bacteria ([5]; O78, 3 h): 20 µM; LPS binding [6]: strong LPS binding capacity
CC[C@H](C)[C@H](NC(=O)[C@H](CCCCN)NC(=O)[C@H](CCC(=O)O)NC(=O)[C@H](CCCCN)NC(=O)[C@H](CO)NC(=O)[C@H](CCCCN)NC(=O)[C@H](CCCNC(=N)N)NC(=O)[C@H](Cc1ccccc1)NC(=O)[C@H](Cc1ccccc1)NC(=O)[C@H](CC(=O)O)NC(=O)CNC(=O)[C@H](CC(C)C)NC(=O)[C@@H](N)CC(C)C)C(=O)NCC(=O)N[C@@H](CCCCN)C(=O)N[C@@H](CCC(=O)O)C(=O)N[C@@H](Cc1ccccc1)C(=O)N[C@@H](CCCCN)C(=O)N[C@@H](CCCNC(=N)N)C(=O)N[C@H](C(=O)N[C@H](C(=O)N[C@@H](CCC(N)=O)C(=O)N[C@@H](CCCNC(=N)N)C(=O)N[C@H](C(=O)N[C@@H](CCCCN)C(=O)N[C@@H](CC(=O)O)C(=O)N[C@@H](Cc1ccccc1)C(=O)N[C@@H](CC(C)C)C(=O)N[C@@H](CCCNC(=N)N)C(=O)N[C@@H](CC(N)=O)C(=O)N[C@@H](CC(C)C)C(=O)N[C@H](C(=O)N1CCC[C@H]1C(=O)N[C@@H](CCCNC(=N)N)C(=O)N[C@H](C(=O)N[C@@H](CCC(=O)O)C(=O)N[C@@H](CO)C(=O)O)[C@@H](C)O)C(C)C)[C@@H](C)CC)C(C)C)[C@@H](C)CC [LL-37] |  |  |  |  | Cytotoxicity against RAW264.7 cells [7]: mildly cytotoxic; Cytotoxicity against porcine PBMCs [8]: not; Hemolysis of porcine erythrocytes [9]: less than 10%; MBC at higher density of bacteria ([5]; 5*10^8 CFU/ml E. coli O78, density used for TEM): 160 µM
Ac-KRLKKIGKVLKWIPPIVGSIPLGCG (disulfide (positions not given here)) [Peptide P12, PMAP-36 analog with N-terminal truncation of 11 amino acids] | slightly more efficient than the full-length peptide | as strongly inhibited | as strongly inhibited |  | 
I: Ac-KIGKVLKWIPPIVGSIPLGCG / II: Ac-KIGKVLKWIPPIVGSIPLGCG (disulfide I:20-II:20) [Peptide P16] |  | completely lost its LPS neutralizing capacity | completely lost its LPS neutralizing capacity | > 40 | LPS binding [6]: still bound strongly to LPS
RFGRFLRKIRRFRPKVTITIQGSARF-NH2 [CATH-2] |  |  |  | 5 to 10 | MBC at higher density of bacteria ([5]; O78, 3 h): 40 µM
Ac-GRFRRLRKKTRKRLKKIGKVLKWIPPIVGSIPLGS [mP1] | slightly increased compared to their dimeric counterparts | as efficient as the full-length peptide | as efficient as the full-length peptide |  | 
Ac-KRLKKIGKVLKWIPPIVGSIPLGS [mP12] | identical to P12 | strongly reduced LPS neutralizing capacity | strongly reduced LPS neutralizing capacity |  | 
Ac-RKKTRKRLKKIGKVLKWIPPIVGSIPLGS [mP7] | slightly increased compared to their dimeric counterparts | strongly reduced LPS neutralizing capacity | strongly reduced LPS neutralizing capacity |  | 
